# From patent US4071528A, “Certain thiazolidine and tetrahydrothiazine compounds” (May & Baker Limited, priority 1975, dated 1978)
# Where two headings read alike, the source gives them in different places.
# Tests used:
# [1] = tested on: Nippostrongylus brasiliensis; assay: Activity against roundworms in rats, A.1: treatment 6 days after infection (patent infection), post-mortem worm counts; type: in vivo; conditions: 48 h, treated 6 days after infection, read-out: % Reduction of mean worm load
# Method: In the Tables of results "s.c." means subcutaneous and the doses are expressed in mg/kg animal body weight. […] A.1. Rats were infected with 100 Nippostrongylus brasiliensis larvae each, by the subcutaneous route. After 6 days, when the infection was patent, the rats were randomised and allotted to groups of 5 animals each, ready for treatment. One group was used for each dose level of the test compound, which was administered by the oral or subcutaneous route, and in each experiment, one group of 10 animals was left untreated as a control. All the rats were killed for post-mortem worm counts 48 hours after treatment. The activities, expressed in terms of the percentage reduction in mean worm load of the treated groups compared with the untreated group, are shown in Table I.
# [2] = tested on: Nippostrongylus brasiliensis; assay: Activity against roundworms in rats, A.2: treatment 24 hours after infection, post-mortem worm counts; type: in vivo; conditions: 144 h, treated 24 hours after infection, read-out: % Reduction of mean worm load
# Method: In the Tables of results "s.c." means subcutaneous and the doses are expressed in mg/kg animal body weight. […] A.2. Rats were infected with 100 Nippostrongylus brasiliensis larvae each, by the subcutaneous route. After 24 hours the rats were randomised and allotted to groups of 5 animals each, ready for treatment. Doses of the test compound were then administered to each group by the oral or subcutaneous route, one group of 10 animals being left untreated as a control. All the rats were killed for post-mortem worm counts 6 days after dosing. The activities, expressed in terms of the percentage reduction in mean worm load of the treated groups compared with the untreated control group, are given below in Table II.
# [3] = tested on: Cooperia oncophora and Ostertagia ostertagi; assay: C.1 Activity against Cooperia oncophora and Ostertagia ostertagi in their adult stages in calves, faecal egg counts; type: in vivo; conditions: s.c. (methanesulphonate salt)
# Method: In the Tables of results "s.c." means subcutaneous and the doses are expressed in mg/kg animal body weight. […] C.1. Activity against Cooperia oncophora and Ostertagia ostertagi in their adult stages in calves. Worm-free, 6-7 week old calves were each infected with 15,000 C. oncophora and 15,000 O. ostertagi larvae. Approximately 3 weeks later, doses of the test compound were administered to each group of 2 animals by the subcutaneous route, one group of two animals being left untreated as a control. Individual faecal egg counts were determined 1 day before treatment and 5-7 days after treatment.
# [4] = Oral acute toxicity (LD50) in mice; conditions: mouse, in vivo, observed during next 6 days
# Excerpt: Mice were each treated orally with one of the compounds of formula I, and they were observed during the next 6 days. The LD50 figures obtained (doses lethal to 50% of mice tested) are shown in Table VII, expressed in mg/kg animal body weight.
# [5] = tested on: Fasciola hepatica; assay: D. Activity against mature and immature liver flukes in sheep; type: in vivo; conditions: oral 25 mg/kg in gelatin capsules; for Mean % Reduction, Immature flukes: immature flukes in rest of liver; for Mean % Reduction, Mature flukes: mature flukes in bile ducts
# Method: D. Activity against mature and immature liver flukes in sheep On the first day of the experiment a group of sheep were each infected with 300 metacercariae of liver fluke Fasciola hepatica and on the 56th day they were each infected with a further 300 metacercariae of F. hepatica. On day 70 of the experiment, doses of the test compounds of 25 mg/kg animal body weight were administered orally in gelatin capsules to groups of two animals per compound. One group of two animals was left untreated as controls. On day 98 of the experiment, all the sheep were killed. The number of mature flukes present in the bile ducts and the numbers of immature flukes present in the rest of the liver were counted. The activities, expressed in terms of the percentage reduction in mean fluke burdens compared with the untreated controls, are shown below in Table VI.
# [6] = tested on: Mycosphaerella pinodes; assay: Minimum effective concentration totally inhibiting fungal growth, Mycosphaerella pinodes, potato dextrose agar tubes; type: cell-based; conditions: Didymella pinodes, 48 h; total inhibition of fungal growth; tested at 50, 10 or 2 ppm; 25° C, 2 days
# Method: Test tubes containing 4.0 ml of molten potato dextrose agar at about 50° C were inoculated with 0.5 ml of suspension of test compound and 0.5 ml of fungal suspension delivered from a sterile syringe to give a final concentration of each compound of 50, 10 or 2 ppm. Two replicate tubes were inoculated with each fungal species. After the addition of test compounds and fungal inoculum to the molten medium the tubes were sloped and the agar was allowed to set. The tubes were incubated at 25° C for either 2 days (Mycosphaerella pinodes) or 3 days (Helminthosporium avenae). […] The suspensions of test compounds were prepared by grinding 0.025 g of test compound with sterile distilled water containing 0.1 ml of 0.1% Texofor FX170 wetting agent, followed by dilution to the concentration desired. The inoculum of Mycosphaerella pinodes was prepared as follows: A one to two week old culture on Coon's agar on plates was scraped off with a glass rod and sterile distilled water and filtered through muslin. The filtrate, containing the spores, was used for inoculation.
# [7] = sc, s.c. (methanesulphonate salt, aqueous)
Structure (SMILES),inhibition in vivo at 100 mg/kg ([1]; oral) [%],"inhibition in vivo at 100 mg/kg [1, 7] [%]",inhibition in vivo at 50 mg/kg ([2]; oral) [%],"inhibition in vivo at 50 mg/kg [2, 7] [%]",% Reduction of mean egg count ([3]; 15 mg/kg) [%],LD50 at 144 h [4] [mg/kg],inhibition in vivo at 12.5 mg/kg ([2]; oral) [%],inhibition in vivo at 100 mg/kg ([2]; oral) [%],"inhibition in vivo at 100 mg/kg [2, 7] [%]",other results
"C=CCSc1ccc(N2C(=O)CSC2=NC(=O)OC)c(NC(=O)CN(C)C)c1 [B, 3-[4-allylthio-2-(2-dimethylaminoacetamido)phenyl]-2-methoxycarbonyliminothiazolidin-4-one]",97,90,98,97,44,> 1000,–,–,–,–
"CCSc1ccc(N2C(=O)CSC2=NC(=O)OC)c(NC(=O)CN(C)C)c1 [C, 3-[4-ethylthio-2-(2-dimethylaminoacetamido)phenyl]-2-methoxycarbonyliminothiazolidin-4-one]",74,89,90,98,100,> 1000,81,–,–,"inhibition in vivo at 12.5 mg/kg [2, 7]: 86%; Mean % Reduction, Immature flukes [5]: 85%; Mean % Reduction, Mature flukes [5]: 72%"
"CCN(CC)CC(=O)Nc1cc(Sc2ccccc2)ccc1N1C(=O)CSC1=NC(=O)OC [Compound D, 3-[2-(2-diethylaminoacetamido)-4-phenylthiophenyl]-2-methoxycarbonyliminothiazolidin-4-one]",99,88,98,100,98,> 1000,96,–,–,"inhibition in vivo at 25 mg/kg [2, 7]: 96%; Mean % Reduction, Immature flukes [5]: 75%; Mean % Reduction, Mature flukes [5]: less than 50%"
"COC(=O)N=C1SCC(=O)N1c1cc(Sc2ccccc2)ccc1NC(=O)CN(C)C [Compound E, 3-[2-(2-dimethylaminoacetamido)-5-phenylthiophenyl]-2-methoxycarbonyliminothiazolidin-4-one]",65,54,95,99,100,> 1000,–,–,–,MIC [6]: < 2 µg/mL
"COC(=O)N=C1SCC(=O)N1c1ccc(SCC2CCCCC2)cc1NC(=O)CN(C)C [F, 3-[4-cyclohexylmethylthio-2-(2-dimethylaminoacetamido)phenyl]-2-methoxycarbonyliminothiazolidin-4-one]",–,–,–,–,–,–,–,59,46,% Reduction of mean egg count ([3]; 25 mg/kg): 50%
"CCCCSc1ccc(N2C(=O)CSC2=NC(=O)OC)c(NC(=O)CN(C)C)c1 [G, 3-[4-n-butylthio-2-(2-dimethylaminoacetamido)phenyl]-2-methoxycarbonyliminothiazolidin-4-one]",96,84,98,100,–,> 1000,95,–,–,"inhibition in vivo at 12.5 mg/kg [2, 7]: 96%"
"COC(=O)N=C1SCC(=O)N1c1ccc(SC2CCCC2)cc1NC(=O)CN(C)C [I, 3-[4-cyclopentylthio-2-(2-dimethylaminoacetamido)phenyl]-2-methoxycarbonyliminothiazolidin-4-one]",–,–,–,–,–,> 1000,–,96,99,"inhibition in vivo at 25 mg/kg ([2]; oral): 97%; inhibition in vivo at 25 mg/kg [2, 7]: 87%"
"CCCCCSc1ccc(N2C(=O)CSC2=NC(=O)OC)c(NC(=O)CN(C)C)c1 [J, 3-[2-(2-dimethylaminoacetamido)-4-n-pentylthiophenyl]-2-methoxycarbonyliminothiazolidin-4-one]",59,–,99,99,–,> 1000,–,99,99,–
"CCCSc1ccc(N2C(=O)CSC2=NC(=O)OC)c(NC(=O)CN(C)C)c1 [K, 3-[2-(2-dimethylaminoacetamido)-4-n-propylthiophenyl]-2-methoxycarbonyliminothiazolidin-4-one]",–,–,97,98,85,> 1000,–,–,–,"inhibition in vivo at 50 mg/kg ([1]; oral): 99%; inhibition in vivo at 50 mg/kg [1, 7]: 96%; inhibition in vivo at 3.125 mg/kg ([2]; oral): 92%; inhibition in vivo at 3.125 mg/kg [2, 7]: 96%"
"COC(=O)N=C1SCC(=O)N1c1ccc(Sc2ccccc2)cc1NC(=O)CCN(C)C [L, 3-[2-(3-dimethylaminopropionamido)-4-phenylthiophenyl]-2-methoxycarbonyliminothiazolidin-4-one]",90,–,81,90,84,> 1000,–,–,–,–
